Assay results published in patent publication US11571426B2, “Compositions for preventing or treating lupus” (CHONG KUN DANG PHARMACEUTICAL CORP., priority 2017, dated 2023).

Experiments:
[1] = tested on: NZB/W F1 female mice; test: IgG and C3 depositions in glomerulus (fluorescence immunostaining); format: in vivo, mouse
Method: (§1) 80 NZB/W F1 female mice (four weeks old) were purchased from Jackson Laboratory and maintained in an SPF breeding room with five mice per cage. Their weight and urine protein were measured at 24 weeks after birth (right before administration), and then all the animals except those having too much urine protein were divided into groups as shown in a table 2 below such that the urine protein and weight might be evenly distributed among the groups.
(§2) Then, the mice were administered as described in the table 2 once a day for about 19 weeks from 24 weeks after birth to 42 weeks after birth.
To identify a therapeutic effect of the inventive pharmaceutical composition on kidney in the SLE disease model, a degree of IgG and C3 depositions in glomerulus was measured.
With regard to a remaining half of the left kidney collected during the autopsy performed in Example 9, a frozen tissue block was prepared for a frozen section by means of an OCT compound, and then IgG and C3 fluorescence immunostaining was performed by means of a method known in the technical field to which the present invention pertains.
Specifically, the frozen tissue was sectioned in a thickness of 4 μm, then fixed in cold acetone for five minutes, and then washed in phosphate buffered saline (PBS) twice for five minutes. To get rid of a non-specific reaction, a resulting tissue was blocked by means of the PBS solution with the addition of 1% bovine serum albumin and 0.05% tween-20 for 30 minutes, and then reacted at room temperature for one hour by means of FITC-conjugated goat anti-mouse IgG antibodies (1:200, AP308F, Merck Millipore) or FITC-conjugated goat anti-mouse C3 antibodies (1:100, Cappel 55500, MP Bio). After that, the resulting tissue was washed with the PBS for five minutes three times, then covered with a cover glass by means of a mounting medium including DAPI, and then observed by means of a confocal laser scanning microscopy (LSM 700, ZEISS).

[2] = tested on: NZB/W F1 female mice; test: BUN and serum creatinine in SLE model mouse; format: in vivo
Method: as §1, §2
The fresh urine of mice was collected before and after administration every two weeks, while blood collection was performed before and after administration every four weeks. The serum was prepared by centrifugation of the collected blood and then kept at −70° C.
To evaluate a kidney function of the SLE model mouse, BUN and creatine concentrations were measured from a mouse serum collected every month (at 24, 28, 32, 36 and 40 weeks old and during autopsy) by means of a Dri-CHEM 3000 colorimetric analyzer (Fuji film).

[3] = tested on: NZB/W F1 female mice; test: Immunoglobulin isotypes in serum (Luminex); format: in vivo, mouse; details: 50 mg/kg dosed group vs negative control
Method: as §1, §2
A concentration of immunoglobulin isotypes (IgG1, IgG2a, IgG2b, IgG3 and IgM) in the serum obtained during the mouse autopsy was measured by means of Luminex assay kit for mouse isotype (R&D systems, Minneapolis, Minn.).

[4] = tested on: NZB/W F1 female mice; test: T cell populations in spleen (FACS) in SLE disease mouse; format: in vivo
Method: as §1, §2
To evaluate a pattern of immune T cell populations in spleen in the SLE disease mouse, a ratio of CD3, CD4, CD8a and CTLA4 expressions as well as a Treg proportion/Th1, Th2, Th17 and Treg master regulator (T-bet, GATA-3, ROR-γt, Foxp3) expression patterns were measured.
To that end, splenocytes were first obtained from the spleen obtained during the mouse autopsy by means of a 70 μm cell strainer (BD), and then red blood cells were hemolyzed by means of an EL buffer and washed with FACS buffer solution (5% BSA/PBS). After that, staining was performed at a concentration recommended by a manufacturer by means of PerCP-cy5.5-conjugated anti-mouse CD3 (ebioscience, Sandiego, Calif., USA), PE-Cyanine7-conjugated anti-mouse CD8a (ebioscience), FITC-conjugated anti-CD4 (BD), APC-conjugated anti-mouse CD25 (BD), PE-conjugated anti-mouse FoxP3 (BD), PE-conjugated anti-mouse RORγt (ebioscience), PE-conjugated anti-mouse T-bet (ebioscience), PE-conjugated anti-mouse GATA-3 (ebioscience), and PE-conjugated anti-mouse CTLA4 (ebioscience) antibodies.
The splenocytes and cell surface marker antibodies were immediately reacted. Before reacting FoxP3, RORγt, T-bet and GATA3 antibodies, the splenocytes were fixed by means of a FoxP3/Transcription Factor staining buffer set, then permeabilized, and then reacted with the antibodies. A ratio of CD4:CD8 in CD3 cells as well as a ratio of CD4+CD8-cells, CD4−CD8+ cells, CD4+CD8+ cells and double negative T cells were respectively measured and compared between the groups. To identify a ratio of FoxP3, RORγt, T-bet and GATA3, which were master regulators of Treg, Th17, Th1 and Th2, a ratio of CD4+CD25+FoxP3+ cells, CD4+CD25+RORγt+ cells, CD4+CD25+ T-bet+ cells and CD4+CD25+GATA3+ cells was respectively measured.

[5] = tested on: NZB/W F1 female mice; test: Weight recovery in SLE model mouse; format: in vivo
Method: as §1, §2

[6] = experimental groups vs control groups
[7] = experimental groups, 40 weeks old
[8] = 50 mg/kg dosed group vs control group
[9] = spleen, CD3+ gated, experimental groups

O=C(NO)c1ccc(CN(C(=O)N2CCOCC2)c2cccc(C(F)(F)F)c2)cc1 [Compound 374, N-(4-(hydroxycarbamoyl)benzyl)-N-(3-(trifluoromethyl)phenyl)morpholine-4-carboxamide]
level of C3 depositions in kidney ([1]; 50 mg/kg dosed group): remarkably decreased
level of IgG depositions in kidney ([1]; 50 mg/kg dosed group): remarkably decreased
level of C3 depositions in kidney ([1]; experimental groups): decreased
level of IgG depositions in kidney ([1]; experimental groups): decreased
BUN concentration [2, 6]: decreased
serum creatine concentration [2, 6]: decreased
BUN concentration [2, 7]: remarkably excellent effect of reducing
serum creatine concentration [2, 7]: remarkably excellent effect of reducing
concentration of IgG1 in serum [3]: decreased
concentration of IgG2a in serum [3]: decreased
concentration of IgG2b in serum [3]: decreased
concentration of IgG3 in serum [3]: decreased
concentration of IgM in serum [3]: remarkably decreased
ratio of CD4+T-bet+/CD4+GATA-3+ ([4]; 30 mg/kg and 50 mg/kg dosed groups vs control group): more significantly decreased
T-bet expression in CD4+ cells [4, 8]: significantly lower
ratio of CD4+CD25+ cells/CD4+ cells [4, 8]: significantly lower
ratio of CD25+ cells [4, 8]: significantly lower
ratio of CD4−CD8+ T cells [4, 9]: increased
ratio of CD4−CD8− T cells [4, 9]: decreased
ratio of CD4+CD25+Foxp3+, CD4+CD25+RORγt+, CD4+CD25+ T-bet+ and CD4+CD25+GATA-3+ cells ([4]; spleen, between the groups): a significance between the groups was not observed yet
ratio of CD4+CD8−: CD4−CD8+ T cells ([4]; spleen, experimental groups): tended to decrease as an administered dose was increased
weight ([5]; 10 mg/kg dosed group, from about 40 weeks): recovered to the same level as that of the positive control group
weight recovery ([5]; 30 and 50 mg/kg dosed groups, vs positive control): more excellent weight recovery effect
